Holding throughout (type): biochemical
The target in one experiment is T1, MAGL (Mus musculus, UniProt O35678).
T1 construct: Proteomes (mouse brain membrane fraction or cell lysates); from tissue; host or cells: mouse brain membrane fraction (or unspecified cell lysates)
T1 sequence (O35678 1-303): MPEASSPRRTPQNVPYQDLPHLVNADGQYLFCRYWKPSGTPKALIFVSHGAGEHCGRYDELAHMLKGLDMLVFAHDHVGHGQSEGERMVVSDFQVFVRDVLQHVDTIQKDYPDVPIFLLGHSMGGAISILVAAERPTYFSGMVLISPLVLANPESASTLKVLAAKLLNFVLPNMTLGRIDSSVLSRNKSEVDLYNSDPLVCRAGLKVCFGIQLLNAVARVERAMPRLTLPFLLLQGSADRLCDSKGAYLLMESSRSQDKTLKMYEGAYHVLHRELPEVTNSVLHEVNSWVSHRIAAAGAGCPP
The experiment in a line: In vitro competitive activity-based protein profiling (mouse), MAGL. Conditions: for inhibition at 1 µM: mouse proteome, in vitro, read-out: % Inhibition at 1 μM MAGL; for IC50: mouse brain membrane fraction or cell lysates, 30 min preincubation at 37° C, FP-Rh probe. On the procedure: (§1) In Vitro Competitive Activity-Based Protein Profiling (Mouse).
(§2) Proteomes (mouse brain membrane fraction or cell lysates) (50 μL, 1.0 mg/mL total protein concentration) were preincubated with varying concentrations of inhibitors at 37° C. After 30 min, FP-Rh (1.0 μL, 50 μM in DMSO) was added and the mixture was incubated for another 30 min at 37° C. Reactions were quenched with SDS loading buffer (50 μL-4×) and run on SDS-PAGE.

The target of a further experiment is T2, FAAH (Mus musculus, UniProt O08914).
T2 construct: Proteomes (mouse brain membrane fraction or cell lysates); from tissue; host or cells: mouse brain membrane fraction (or unspecified cell lysates)
T2 sequence (O08914 1-579): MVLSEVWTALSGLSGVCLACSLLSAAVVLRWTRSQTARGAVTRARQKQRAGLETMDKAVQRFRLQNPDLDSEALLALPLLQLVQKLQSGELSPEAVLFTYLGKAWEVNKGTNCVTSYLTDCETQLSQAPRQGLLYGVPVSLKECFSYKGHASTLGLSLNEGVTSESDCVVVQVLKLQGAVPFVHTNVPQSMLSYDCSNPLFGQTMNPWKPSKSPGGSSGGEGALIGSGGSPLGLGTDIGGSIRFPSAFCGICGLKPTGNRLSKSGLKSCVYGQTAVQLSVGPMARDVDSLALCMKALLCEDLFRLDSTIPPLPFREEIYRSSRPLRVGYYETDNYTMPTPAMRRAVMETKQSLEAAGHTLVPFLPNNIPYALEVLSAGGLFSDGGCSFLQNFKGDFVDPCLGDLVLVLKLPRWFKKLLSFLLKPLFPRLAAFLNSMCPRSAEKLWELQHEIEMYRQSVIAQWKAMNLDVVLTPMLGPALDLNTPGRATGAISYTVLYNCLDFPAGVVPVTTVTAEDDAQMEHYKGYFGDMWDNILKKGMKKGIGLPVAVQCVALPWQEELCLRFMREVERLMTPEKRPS
The experiment in a line: In vitro competitive activity-based protein profiling (mouse), FAAH. Particulars: for inhibition at 1 µM: mouse proteome, in vitro; for IC50: mouse brain membrane fraction or cell lysates, 30 min preincubation at 37° C, FP-Rh probe. On the procedure: as §1
Proteomes (mouse brain membrane fraction or cell lysates) (50 μL, 1.0 mg/mL total protein concentration) were preincubated with varying concentrations of inhibitors at 37° C. After 30 min, FP-Rh (1.0 μL, 50 μM in DMSO) was added and the mixture was incubated for another 30 min at 37° C. Reactions were quenched with SDS loading buffer (50 μL-4×) and run on SDS-PAGE. Following gel imaging, serine hydrolase activity was determined by measuring fluorescent intensity of gel bands corresponding to MAGL, ABHD6 and FAAH using ImageJ 1.43u software.

The target of a further experiment is T3, ABHD6 (Mus musculus, UniProt Q8R2Y0).
T3 construct: Proteomes (mouse brain membrane fraction or cell lysates); from tissue; host or cells: mouse brain membrane fraction (or unspecified cell lysates)
T3 sequence (Q8R2Y0 1-336): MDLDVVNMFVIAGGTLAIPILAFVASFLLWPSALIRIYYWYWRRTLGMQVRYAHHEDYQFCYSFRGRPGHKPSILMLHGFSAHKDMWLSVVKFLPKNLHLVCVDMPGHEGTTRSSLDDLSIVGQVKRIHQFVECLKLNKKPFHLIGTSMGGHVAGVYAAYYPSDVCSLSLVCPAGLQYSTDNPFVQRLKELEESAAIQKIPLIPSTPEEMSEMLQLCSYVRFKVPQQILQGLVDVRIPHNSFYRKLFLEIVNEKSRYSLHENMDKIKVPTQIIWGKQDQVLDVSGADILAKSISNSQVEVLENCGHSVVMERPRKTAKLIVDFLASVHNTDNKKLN
The experiment in a line: In vitro competitive activity-based protein profiling (mouse), ABHD6. Particulars: for inhibition at 1 µM: mouse proteome, in vitro, read-out: % Inhibition at 1 μM ABHD6; for IC50: mouse brain membrane fraction or cell lysates, 30 min preincubation at 37° C, FP-Rh probe. On the procedure: as §1, §2

On to `Cc1c(CN2CCN(C(=O)OC(C(F)(F)F)C(F)(F)F)CC2)cccc1CN1CCCC[C@@H]1C` [Example 20, 1,1,1,3,3,3-hexafluoropropan-2-yl (S)-4-(2-methyl-3-((2-methylpiperidin-1-yl)methyl)benzyl)piperazine-1-carboxylate], for which the inhibition at 1 µM on MAGL is above 75%; at FAAH, below 25%; on ABHD6, above 75%. Further, the IC50 is 100 to 1000 nM on MAGL, above 1000 nM at FAAH and 100 to 1000 nM on ABHD6.
With `Cc1c(CN2CCOCC2)cccc1CN1CCN(C(=O)OC(C(F)(F)F)C(F)(F)F)CC1` [Example 21, 1,1,1,3,3,3-hexafluoropropan-2-yl 4-(2-methyl-3-(morpholinomethyl)benzyl)piperazine-1-carboxylate], the inhibition at 1 µM on MAGL is above 75%; on FAAH, below 25%; at ABHD6, above 75%. Besides, the IC50 on MAGL was 100 to 1000 nM; at FAAH, above 1000 nM; at ABHD6, 100 to 1000 nM.
Regarding `O=C(OC(C(F)(F)F)C(F)(F)F)N1CCN(Cc2cccc(CN3CCOCC3)c2F)CC1` [Example 22, 1,1,1,3,3,3-hexafluoropropan-2-yl 4-(2-fluoro-3-(morpholinomethyl)benzyl)piperazine-1-carboxylate], the inhibition at 1 µM on MAGL is above 75%; at FAAH, below 25%; on ABHD6 it was above 75%. The IC50 on MAGL was below 100 nM; at FAAH, above 1000 nM; at ABHD6, 100 to 1000 nM.
Consider `O=C(OC(C(F)(F)F)C(F)(F)F)N1CCN(Cc2ccc(CN3CCCCC3)cc2OC(F)(F)F)CC1` [Example 24, 1,1,1,3,3,3-hexafluoropropan-2-yl 4-(4-(piperidin-1-ylmethyl)-2-(trifluoromethoxy)benzyl)piperazine-1-carboxylate], for which the values for the inhibition at 1 µM at MAGL, at FAAH and on ABHD6 were above 75%, below 25% and below 25%, respectively. Moreover, the values for the IC50 at MAGL, at FAAH and at ABHD6 were 100 to 1000 nM, above 1000 nM and above 1000 nM, respectively.
On to `O=C(OC(C(F)(F)F)C(F)(F)F)N1CCN(Cc2ccc(CN3CCCC3)cc2OC(F)(F)F)CC1` [Example 25, 1,1,1,3,3,3-hexafluoropropan-2-yl 4-(4-(pyrrolidin-1-ylmethyl)-2-(trifluoromethoxy)benzyl)piperazine-1-carboxylate], for which the figures for the inhibition at 1 µM at MAGL, at FAAH and at ABHD6 were above 75%, below 25% and below 25%, respectively. In addition, the IC50 on MAGL was 100 to 1000 nM; on FAAH it was above 1000 nM; on ABHD6, above 1000 nM.
As to `O=C(OC(C(F)(F)F)C(F)(F)F)N1CCN(Cc2ccc(N3CC4CCC(C3)O4)cc2F)CC1` [Example 27, 1,1,1,3,3,3-hexafluoropropan-2-yl 4-(4-(8-oxa-3-azabicyclo[3.2.1]octan-3-yl)-2-fluorobenzyl)piperazine-1-carboxylate], the results for the inhibition at 1 µM at MAGL, at FAAH and at ABHD6 were above 75%, below 25% and 25 to 75%, respectively. Further, the figures for the IC50 at MAGL, on FAAH and at ABHD6 were below 100 nM, above 1000 nM and 100 to 1000 nM, respectively.
Regarding `O=C(OC(C(F)(F)F)C(F)(F)F)N1CCN(Cc2ccc(N3CC4CCC(C3)O4)cc2OC(F)(F)F)CC1` [Example 28, 1,1,1,3,3,3-hexafluoropropan-2-yl 4-(4-(8-oxa-3-azabicyclo[3.2.1]octan-3-yl)-2-(trifluoromethoxy)benzyl)piperazine-1-carboxylate], the inhibition at 1 µM on MAGL was above 75%; at FAAH, below 25%; at ABHD6 it was below 25%. Further, the results for the IC50 on MAGL, on FAAH and on ABHD6 were 100 to 1000 nM, above 1000 nM and above 1000 nM, respectively.
With `O=C(OC(C(F)(F)F)C(F)(F)F)N1CCN(Cc2cc(Cl)cc(CN3CCCC3)c2)CC1` [Example 29, 1,1,1,3,3,3-hexafluoropropan-2-yl 4-(3-chloro-5-(pyrrolidin-1-ylmethyl)benzyl)piperazine-1-carboxylate], the inhibition at 1 µM at MAGL was above 75%; on FAAH, below 25%; on ABHD6 it was below 25%. Besides, the figures for the IC50 at MAGL, on FAAH and at ABHD6 were 100 to 1000 nM, above 1000 nM and above 1000 nM, respectively.
As to `CN(C)C(=O)C1CCN(c2cc(Cl)ccc2CN2CCN(C(=O)OC(C(F)(F)F)C(F)(F)F)CC2)CC1` [Example 34, 1,1,1,3,3,3-hexafluoropropan-2-yl 4-(4-chloro-2-(4-(dimethylcarbamoyl)piperidin-1-yl)benzyl)piperazine-1-carboxylate], the inhibition at 1 µM is above 75% on MAGL, below 25% at FAAH and below 25% at ABHD6. For the same compound, the IC50 at MAGL is 100 to 1000 nM; at FAAH it was above 1000 nM; at ABHD6, above 1000 nM.
Turning to `NC(=O)C1CCN(c2cc(C(F)(F)F)ccc2CN2CCN(C(=O)OC(C(F)(F)F)C(F)(F)F)CC2)CC1` [Example 36, 1,1,1,3,3,3-hexafluoropropan-2-yl 4-(2-(4-carbamoylpiperidin-1-yl)-4-(trifluoromethyl)benzyl)piperazine-1-carboxylate], the inhibition at 1 µM was above 75% on MAGL, below 25% on FAAH and above 75% on ABHD6. Also, the IC50 on MAGL was below 100 nM; at FAAH, above 1000 nM; at ABHD6 it was 100 to 1000 nM.
As to `O=C(OC(C(F)(F)F)C(F)(F)F)N1CCN(Cc2ccc(Cl)cc2N2CCC(C(=O)N3CCCC3)CC2)CC1` [Example 37, 1,1,1,3,3,3-hexafluoropropan-2-yl 4-(4-chloro-2-(4-(pyrrolidine-1-carbonyl)piperidin-1-yl)benzyl)piperazine-1-carboxylate], the inhibition at 1 µM on MAGL was above 75%; on FAAH, below 25%; at ABHD6 it was below 25%. The IC50 at MAGL is 100 to 1000 nM; on FAAH, above 1000 nM; at ABHD6 it was above 1000 nM.
Consider `Cc1cc(C)n(C2CN(c3cc(Cl)ccc3CN3CCN(C(=O)OC(C(F)(F)F)C(F)(F)F)CC3)C2)n1` [Example 38, 1,1,1,3,3,3-hexafluoropropan-2-yl 4-(4-chloro-2-(3-(3,5-dimethyl-1H-pyrazol-1-yl)azetidin-1-yl)benzyl)piperazine-1-carboxylate], for which the inhibition at 1 µM on MAGL was above 75%; at FAAH it was below 25%; at ABHD6, below 25%. For the same compound, the values for the 50% inhibitory concentration (IC50) on MAGL, at FAAH and on ABHD6 were below 100 nM, above 1000 nM and 100 to 1000 nM, respectively.
As for `O=C(OC(C(F)(F)F)C(F)(F)F)N1CCN(Cc2ccc(Cl)cc2N2CC[C@H](N3CCCS3(=O)=O)C2)CC1` [Example 46, 1,1,1,3,3,3-hexafluoropropan-2-yl (S)-4-(4-chloro-2-(3-(1,1-dioxidoisothiazolidin-2-yl)pyrrolidin-1-yl)benzyl)piperazine-1-carboxylate], the results for the inhibition at 1 µM at MAGL, at FAAH and at ABHD6 were above 75%, 25 to 75% and 25 to 75%, respectively. The IC50 was below 100 nM at MAGL, above 1000 nM on FAAH and above 1000 nM on ABHD6.
